These results are taken from publication PMC9969396, “Development of Human Carbonic Anhydrase II Heterobifunctional Degraders” (Journal of Medicinal Chemistry, 2023).

Read-outs that look alike come from different tables or passages of the source.

For experiment [1], the target named is T1, hCAII (Homo sapiens, UniProt P00918).
T1 construct: made in house; host or cells: Escherichia coli BL21(DE3), pACA plasmid (gift from Carol A. Fierke)
As to the kind of experiment: colorimetric p-nitrophenyl acetate hCAII activity assay. It is filed as biochemical. The method, then: To verify that the p-sulfamoyl benzamide MBP retained its binding following ligation with the linker and bulky recruiting group moieties, the inhibition activity of each degrader candidate was determined using a colorimetric p-nitrophenol acetate hCAII activity assay.[46] In short, recombinantly expressed hCAII was preincubated with the degrader candidate before the addition of p-nitrophenyl acetate, a substrate that upon enzymatic cleavage leads to acetic acid and p-nitrophenolate.
Recombinant hCAII was expressed and purified according to the protocol reported in the Supporting Information. […] Wells were prepared to a final volume of 100 μL per well, including buffer (50 mM HEPES, pH 8.0), enzyme (hCAII, 40 nM), inhibitor (varying concentrations), and substrate (p-nitrophenyl acetate, 500 μM). Inhibitors and protein were preincubated for 10 min at rt, and the substrate was added to the reaction mixture immediately before reading. […] The rate of absorbance for each replicate was corrected for substrate autohydrolysis and inherent inhibitor absorbance by subtracting the rate of absorbance from a blank sample lacking enzyme but containing the inhibitor and substrate. Samples lacking inhibitor but containing enzyme and substrate were used to define 100% hCAII activity. Samples lacking inhibitor and enzyme were used to define 0% hCAII activity. IC50 was determined using non-linear regression with a variable slope on the GraphPad Prism software.

Experiment [2] concerns the target T2, hCAII (Homo sapiens, UniProt P00918+Q96SW2).
T2 construct: HEK293 cells, a line known to abundantly express hCAII; endogenous in cells; host or cells: HEK293
Description: competition / mechanistic experiments on hCAII degradation in HEK293 cells, western blot. It is filed as cell-based. As to conditions: then 50 nM for 6 h. The method, then:
Competition experiments were performed to verify that the degradation activity of 11 was the result of a PROTAC-style mechanism requiring concurrent degrader engagement with both hCAII and CRBN.
After reaching 90% confluency, HEK293 cells were trypsinized, counted, and plated with 2 mL media at 2 × 10^6 cells per well on a tissue-culture-treated, 6-well plate. At the appropriate number of hours before reaching ∼90% confluency, cells were treated with DMSO solutions of the appropriate compounds (final concentration 0.5% DMSO per well). Upon reaching 90% confluency, typically 72 h, culture media were removed and the cells were washed with cold Dulbecco’s phosphate-buffered saline (DPBS). Lysis buffer, composed of cell lysis buffer (Cell Signaling Technology, 9803), protease inhibitor cocktail (Cell Signaling Technology, 5872), and 1 mM phenylmethylsulfonylfluoride, was added to each well, and the plates were rocked at 4 °C for 20 min. Cells were then scraped from the bottom of the plates, and the supernatant was collected after spinning down at 14,000g at 4 °C for 10 min and frozen at −80 °C. Lysates were thawed on ice, and the total protein concentration was measured using a Pierce bicinchoninic acid protein assay (Thermo Fisher Scientific, 23225). […] Following heating at 98 °C for 5 min and cooling to room temperature, the prepared samples were electrophoretically separated on a 4–20% TGX gel (Bio-Rad, 4568095) and transferred to a PVDF membrane (Amersham Hybond P 0.45 μm, 106000019) in a tris-glycine transfer buffer (Thermo Fisher Scientific, LC3675) with a 20% final MeOH concentration. […] The immunoblot was then analyzed using the ImageJ software as an 8-bit image. The brightness and contrast of the image were adjusted, and the integrated density was calculated for each protein band using the gel lane analysis tool. Relative hCAII expression was calculated by normalizing the hCAII/β-actin ratio in compound-treated wells to the hCAII/β-actin ratio in vehicle (DMSO)-treated wells and indicated as “hCAII Abundance (% DMSO)”.
A general note: A western blot detects proteins with antibodies after separation by electrophoresis.

The target in experiment [3] is T2, hCAII. Description: time-course of hCAII abundance in HEK293 cells, western blot. The settings on record: 50 nM. It is filed as cell-based. The method, then: To determine the efficiency of 11, hCAII abundance was evaluated in HEK293 cells that were dosed with 50 nM of 11 over 48 h. Depletion of hCAII relative to vehicle (DMSO) began within 2 h and reached a maximal effect by 6 h (Figure 5c). Sustained degradation was also observed for the entirety of the 48 h tested. Based on the results of this time-course dosing experiment, it appears that 11 begins degrading hCAII quickly after exposure to the cell and maintains prolonged activity after initial dosing.
After reaching 90% confluency, HEK293 cells were trypsinized, counted, and plated with 2 mL media at 2 × 10^6 cells per well on a tissue-culture-treated, 6-well plate. […] Lysates were thawed on ice, and the total protein concentration was measured using a Pierce bicinchoninic acid protein assay (Thermo Fisher Scientific, 23225). […] The immunoblot was then analyzed using the ImageJ software as an 8-bit image. The brightness and contrast of the image were adjusted, and the integrated density was calculated for each protein band using the gel lane analysis tool. Relative hCAII expression was calculated by normalizing the hCAII/β-actin ratio in compound-treated wells to the hCAII/β-actin ratio in vehicle (DMSO)-treated wells and indicated as “hCAII Abundance (% DMSO)”.

Experiment [4] has as its target T2, hCAII. Description: nine-point dose response hCAII degradation assay in HEK293 cells, western blot. It is filed as cell-based. The method, then: Three biological replicates of HEK293 cells were dosed in parallel with 4 or 5 at concentrations ranging from 5 pM to 15 μM for 24 h prior to lysis. […] This phenomenon can be attributed to the binary complexes of degrader-POI and degrader-E3 ligase outcompeting the POI-degrader-E3 ligase ternary complex at high degrader concentrations. […] The half-maximal degradation (DC50 value reported as a 95% confidence interval) and maximum percentage of degradation (DMax) of each active degrader were determined using a least squares sigmoidal fitting of the degradation activity of dosing concentrations below the observable “hook effect” (Figure 2B).
Figure 3 Dose-dependent degradation of hCAII by 4 and 5. (A) Western blot images of HEK293 cells dosed for 24 h with degrader 4 (left) or 5 (right) at concentrations of 5 pM to 15 μM. (B) Dose response curves of hCAII abundance as a percent of DMSO vehicle for 4 (left) or 5 (right). Band intensities of blots from three biological replicates were quantified using ImageJ software (Experimental Section). Data were normalized to a vehicle-treated (DMSO) group and plotted as a sigmoidal curve. Nonlinear fitting of log([inhibitor]) vs response (three parameters) was generated for 4 with R^2 = 0.955 and 5 with R^2 = 0.855 in GraphPad Prism. Points marked with an asterisk indicate only two biological replicates. In all other cases, error bars represent the standard deviation of triplicate experiments. Full images of the western blots are provided in the Supporting Information (Figures S1 and S3).
Given the inactivity of 1–3 and increased potency of 4 over 5, a 12-atom linker appeared to be a preferred length for favorable ternary complex formation in the heterobifunctional degraders tested. To further examine the role of linker length and composition, we explored hydrocarbon linkers for their ability to improve degrader lipophilicity and membrane permeability without impacting the favorable ternary complex formation. […] Western blot analysis and quantification of three biological replicates identified the degradation of hCAII at concentrations of 11 as low as 50 pM and achieved near-complete hCAII degradation at concentrations of 5 nM (Figures 5A and S3).
After reaching 90% confluency, HEK293 cells were trypsinized, counted, and plated with 2 mL media at 2 × 10^6 cells per well on a tissue-culture-treated, 6-well plate. At the appropriate number of hours before reaching ∼90% confluency, cells were treated with DMSO solutions of the appropriate compounds (final concentration 0.5% DMSO per well). Upon reaching 90% confluency, typically 72 h, culture media were removed and the cells were washed with cold Dulbecco’s phosphate-buffered saline (DPBS). Lysis buffer, composed of cell lysis buffer (Cell Signaling Technology, 9803), protease inhibitor cocktail (Cell Signaling Technology, 5872), and 1 mM phenylmethylsulfonylfluoride, was added to each well, and the plates were rocked at 4 °C for 20 min. Cells were then scraped from the bottom of the plates, and the supernatant was collected after spinning down at 14,000g at 4 °C for 10 min and frozen at −80 °C. Lysates were thawed on ice, and the total protein concentration was measured using a Pierce bicinchoninic acid protein assay (Thermo Fisher Scientific, 23225). […] Following heating at 98 °C for 5 min and cooling to room temperature, the prepared samples were electrophoretically separated on a 4–20% TGX gel (Bio-Rad, 4568095) and transferred to a PVDF membrane (Amersham Hybond P 0.45 μm, 106000019) in a tris-glycine transfer buffer (Thermo Fisher Scientific, LC3675) with a 20% final MeOH concentration. The membrane was rocked at 4 °C with fluorescent blocking buffer (Thermo Fisher Scientific, 37565) for 1 h and then incubated with primary antibodies (hCAII Rabbit mAb, 1:1000 and β-actin Rabbit pAb, 1:2000 in fluorescent blocking buffer) at 4 °C overnight. […]

Setting [5] is: SMILES csv supplement, read-out: hCAII IC50.
Where [6] appears, read: recombinant hCAII 40 nM, p-nitrophenyl acetate 500 μM, pH 8.0, 95% confidence interval, read-out: IC50 (nM), hCAII inhibition activity (Table S1).
The mark [7] stands for this setting: enzyme concentration of 40 nM, read-out: IC50, below the detection limit of the assay.

Take `NS(=O)(=O)c1ccc(C(=O)NCCOCCOCCOCCNc2cccc3c2C(=O)N(C2CCC(=O)NC2=O)C3=O)cc1` (stereo not shown) [Compound 3, N-(2-(2-(2-(2-((2-(2,6-Dioxopiperidin-3-yl)-1,3-dioxoisoindolin-4-yl)amino)ethoxy)ethoxy)ethoxy)ethyl)-4-sulfamoylbenzamide]: the half-inhibitory concentration (IC50) at hCAII [1] (setting [5]) and at hCAII [1] (setting [6]) was 41 ± 5 nM each time.
As to `NS(=O)(=O)c1ccc(C(=O)NCCCOCCCCOCCCNC(=O)CC23CC4CC(CC(C4)C2)C3)cc1` [Compound 9, N-(3-(4-(3-(2-((3r,5r,7r)-Adamantan-1-yl)acetamido)propoxy)butoxy)propyl)-4-sulfamoylbenzamide], the 50% inhibitory concentration (IC50) at hCAII [1] (setting [5]) and at hCAII [1] (setting [6]) was 35 ± 5 nM each time.
Take `NS(=O)(=O)c1ccc(C(=O)NCCCCCCCCCCCCNc2cccc3c2C(=O)N(C2CCC(=O)NC2=O)C3=O)cc1` (stereo not shown) [Compound 11, N-(12-((2-(2,6-Dioxopiperidin-3-yl)-1,3-dioxoisoindolin-4-yl)amino)dodecyl)-4-sulfamoylbenzamide]: the “hCAII degradation after MG132 pre-treatment” value on hCAII [2] (HEK293, 1 μM MG-132 for 1 h) is “complete loss of hCAII degradation activity”. In addition, the “hCAII degradation after acetazolamide pre-treatment” value at hCAII [2] (HEK293, 1 h preincubation with 5 μM acetazolamide) is reported as “no degradation of hCAII”. Besides, on hCAII [2] (HEK293, 1 h preincubation with 5 μM lenalidomide), the “hCAII degradation after lenalidomide pre-treatment” value is recorded as “no degradation of hCAII”. For the same compound, on hCAII [3], the “time to maximal effect” value is listed as ≤ 6 h. For the same compound, the Dmax on hCAII [4] (HEK293, HEK293 cells, 24 h, read-out: DMax (maximum percentage of degradation)) worked out at 100%. Moreover, at hCAII [4] (HEK293 cells, 24 h), the “concentration achieving near-complete hCAII degradation” value is 5 nM and the “degradation of hCAII at concentrations as low as” value was determined as 50 pM. Further, the 50% degradation concentration (DC50) at hCAII [4] (HEK293 cells, 24 h, 5 pM to 15 μM, 95% confidence interval, read-out: DC50 (half-maximal degradation)) came to 0.5 ± 0.3 nM. Besides, the “hook effect (attenuation of target degradation at high concentration)” value on hCAII [4] (HEK293 cells, 24 h, doses up to 15 μM) is “no appreciable “hook effect””. Further, on hCAII [4] (from DC50 values), the “fold increase in activity over 4” value amounted to 10 fold.
As for `NS(=O)(=O)c1ccc(C(=O)NCCOCCOCCNC(=O)CC23CC4CC(CC(C4)C2)C3)cc1` [Compound 7, N-(2-(2-(2-(2-((3r,5r,7r)-Adamantan-1-yl)acetamido)ethoxy)ethoxy)ethyl)-4-sulfamoylbenzamide], the half-maximal inhibitory concentration (IC50) on hCAII [1] (setting [7]) and at hCAII [1] (setting [6]) was ≤ 20 nM each time.
For the compound `COCCNC(=O)c1ccc(S(N)(=O)=O)cc1` [Compound 13, N-(2-Methoxyethyl)-4-sulfamoylbenzamide], the half-maximal inhibitory concentration (IC50) at hCAII [1] (setting [5]) and on hCAII [1] (setting [6]) was 58 ± 8 nM in each case.
Regarding `NS(=O)(=O)c1ccc(C(=O)NCCOCCNC(=O)CC23CC4CC(CC(C4)C2)C3)cc1` [Compound 6, N-(2-(2-(2-((3r,5r,7r)-Adamantan-1-yl)acetamido)ethoxy)ethyl)-4-sulfamoylbenzamide], the IC50 on hCAII [1] (setting [6]) was 57 ± 5 nM.
Turning to `NS(=O)(=O)c1ccc(C(=O)NCCCOCCOCCOCCCNC(=O)CC23CC4CC(CC(C4)C2)C3)cc1` [Compound 10, N-(1-((3r,5r,7r)-Adamantan-1-yl)-2-oxo-7,10,13-trioxa-3-azahexadecan-16-yl)-4-sulfamoylbenzamide], the half-inhibitory concentration (IC50) at hCAII [1] (setting [7]) and at hCAII [1] (setting [6]) was ≤ 20 nM in each case.
In the case of `NS(=O)(=O)c1ccc(C(=O)NCCOCCOCCOCCNC(=O)CC23CC4CC(CC(C4)C2)C3)cc1` [Compound 8, N-(1-((3r,5r,7r)-Adamantan-1-yl)-2-oxo-6,9,12-trioxa-3-azatetradecan-14-yl)-4-sulfamoylbenzamide], the half-inhibitory concentration (IC50) at hCAII [1] (setting [5]) and at hCAII [1] (setting [6]) was 28 ± 4 nM throughout.
In the case of `NS(=O)(=O)c1ccc(C(=O)NCCOCCNc2cccc3c2C(=O)N(C2CCC(=O)NC2=O)C3=O)cc1` (stereo not shown) [Compound 1, N-(2-(2-((2-(2,6-Dioxopiperidin-3-yl)-1,3-dioxoisoindolin-4-yl)amino)ethoxy)ethyl)-4-sulfamoylbenzamide], the IC50 on hCAII [1] (setting [5]) and on hCAII [1] (setting [6]) was 48 ± 5 nM each time.

Usually IC50 stands for the concentration needed to halve the response being measured. As a reminder, the Dmax is the greatest extent of degradation seen. By DC50 is commonly meant the concentration at which degradation of the target reaches its halfway point.
